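Dose response: 5 concentrations. Exposure: 48 h. Format: 96-well plates. Endpoint: linear interpolation; highest concentration if not reached. The concentration for 50% growth inhibition is given as GI50. TGI denotes the concentration required for complete inhibition of growth.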
Experiments:
Assay in all cases: NCI-60 cell line screen, 48 h
[1] = system: 786-0 renal
[2] = system: A498 renal
[3] = system: A549 NSCLC
[4] = system: ACHN renal
[5] = system: BT-549 breast
[6] = system: CAKI-1 renal
[7] = system: CCRF-CEM leukemia
[8] = system: COLO 205 colon
[9] = system: DU-145 prostate
[10] = system: HCC-2998 colon
[11] = system: HCT-116 colon
[12] = system: HCT-15 colon
[13] = system: HL-60(TB) leukemia
[14] = system: HOP-62 NSCLC
[15] = system: HOP-92 NSCLC
[16] = system: HS 578T breast
[17] = system: HT29 colon
[18] = system: IGROV1 ovarian
[19] = system: K-562 leukemia
[20] = system: KM12 colon
[21] = system: LOX IMVI melanoma
[22] = system: M14 melanoma
[23] = system: MALME-3M melanoma
[24] = system: MCF7 breast
[25] = system: MDA-MB-231 breast
[26] = system: MDA-MB-435
[27] = system: MOLT-4 leukemia
[28] = system: NCI-H226 lung
[29] = system: NCI-H23 lung
[30] = system: NCI-H460 lung
[31] = system: NCI-H522 lung
[32] = system: NCI/ADR-RES ovarian
[33] = system: OVCAR-3 ovarian
[34] = system: OVCAR-4 ovarian
[35] = system: OVCAR-5 ovarian
[36] = system: OVCAR-8 ovarian
[37] = system: PC-3 prostate
[38] = system: RPMI-8226 leukemia
[39] = system: RXF 393 renal
[40] = system: SF-268 CNS
[41] = system: SF-295 CNS
[42] = system: SF-539 CNS
[43] = system: SK-MEL-2 melanoma
[44] = system: SK-MEL-28 melanoma
[45] = system: SK-MEL-5 melanoma
[46] = system: SK-OV-3 ovarian
[47] = system: SN12C renal
[48] = system: SNB-19 CNS
[49] = system: SNB-75 CNS
[50] = system: SR leukemia
[51] = system: SW-620 colon
[52] = system: T-47D breast
[53] = system: TK-10 renal
[54] = system: U251 CNS
[55] = system: UACC-257 melanoma
[56] = system: UACC-62 melanoma
[57] = system: UO-31 renal

Compound: Cc1ccc2c(c1)c(C1=C(c3cn(C)c4ccccc34)C(=O)NC1=O)cn2C
- GI50 [1]: 5.21 µM
- TGI [1]: > 22.8 µM
- GI50 [2]: 1.34 µM
- TGI [2]: 6.14 µM
- GI50 [3]: 1.97 µM
- TGI [3]: > 25 µM
- GI50 [4]: 3.09 µM
- TGI [4]: > 23.4 µM
- GI50 [5]: 3.65 µM
- TGI [5]: 11.1 µM
- GI50 [6]: 3.63 µM
- TGI [6]: > 25 µM
- GI50 [7]: 1.32 µM
- TGI [7]: 13.3 µM
- GI50 [8]: 1.49 µM
- TGI [8]: 7.18 µM
- GI50 [9]: 6.73 µM
- TGI [9]: 22.2 µM
- GI50 [10]: 9.25 µM
- TGI [10]: > 25 µM
- GI50 [11]: 1.36 µM
- TGI [11]: 10.2 µM
- GI50 [12]: 1.39 µM
- TGI [12]: > 25 µM
- GI50 [13]: 1.33 µM
- TGI [13]: 11.3 µM
- GI50 [14]: 3.17 µM
- TGI [14]: > 25 µM
- GI50 [15]: 5.96 µM
- TGI [15]: > 22.1 µM
- GI50 [16]: 0.595 µM
- TGI [16]: 3.55 µM
- GI50 [17]: 1.01 µM
- TGI [17]: 6.77 µM
- GI50 [18]: 5.23 µM
- TGI [18]: > 14.9 µM
- GI50 [19]: 1.53 µM
- TGI [19]: > 25 µM
- GI50 [20]: 1.92 µM
- TGI [20]: 9.09 µM
- GI50 [21]: 2.93 µM
- TGI [21]: > 23.4 µM
- GI50 [22]: 2.07 µM
- TGI [22]: > 25 µM
- GI50 [23]: 4.4 µM
- TGI [23]: > 21.4 µM
- GI50 [24]: 1.08 µM
- TGI [24]: > 16.3 µM
- GI50 [25]: 6.93 µM
- TGI [25]: > 25 µM
- GI50 [26]: 0.674 µM
- TGI [26]: > 11.2 µM
- GI50 [27]: 2.56 µM
- TGI [27]: 13.9 µM
- GI50 [28]: 3.57 µM
- TGI [28]: 13 µM
- GI50 [29]: 4.9 µM
- TGI [29]: > 25 µM
- GI50 [30]: 1.26 µM
- TGI [30]: 9.01 µM
- GI50 [31]: 0.927 µM
- TGI [31]: 12.2 µM
- GI50 [32]: 3.23 µM
- TGI [32]: > 25 µM
- GI50 [33]: 0.904 µM
- TGI [33]: 3.44 µM
- GI50 [34]: 3.79 µM
- TGI [34]: > 21.8 µM
- GI50 [35]: 10.8 µM
- TGI [35]: > 25 µM
- GI50 [36]: 5.3 µM
- TGI [36]: > 25 µM
- GI50 [37]: 1.75 µM
- TGI [37]: > 25 µM
- GI50 [38]: 2.19 µM
- TGI [38]: 9.18 µM
- GI50 [39]: 1.54 µM
- TGI [39]: 4.79 µM
- GI50 [40]: 3.09 µM
- TGI [40]: > 25 µM
- GI50 [41]: 1.4 µM
- TGI [41]: > 15.7 µM
- GI50 [42]: 1.11 µM
- TGI [42]: 5.58 µM
- GI50 [43]: 1.42 µM
- TGI [43]: 6.81 µM
- GI50 [44]: 4 µM
- TGI [44]: > 22.5 µM
- GI50 [45]: 1.48 µM
- TGI [45]: 5.07 µM
- GI50 [46]: 2.72 µM
- TGI [46]: > 25 µM
- GI50 [47]: 3.12 µM
- TGI [47]: 16.8 µM
- GI50 [48]: 8.15 µM
- TGI [48]: > 25 µM
- GI50 [49]: 0.723 µM
- TGI [49]: > 17.8 µM
- GI50 [50]: 0.966 µM
- TGI [50]: 9.81 µM
- GI50 [51]: 1.16 µM
- TGI [51]: > 25 µM
- GI50 [52]: 4 µM
- TGI [52]: 20 µM
- GI50 [53]: 8.67 µM
- TGI [53]: > 25 µM
- GI50 [54]: 1.52 µM
- TGI [54]: > 25 µM
- GI50 [55]: 3.39 µM
- TGI [55]: > 24.2 µM
- GI50 [56]: 1.35 µM
- TGI [56]: 9.79 µM
- GI50 [57]: 2.77 µM
- TGI [57]: 13.8 µM
